Reference: patent publication US20180319865A1, “Identification of Novel Small Molecule Beta2 Integrin Agonists” (Rush University Medical Center, priority 2016, published 2018)
Read-outs that look alike come from different tables or passages of the source.

Experiments:
Type in all cases: cell-based
[1] = biological target: T1, wild-type integrin CD11b/CD18 (Homo sapiens, UniProt P11215); assay: HTS cell adhesion assay, K562 CD11b/CD18 cells on immobilized fibrinogen
T1 construct: expressed in transfected cells; host or cells: K562 (ATCC)
Method: K562 cells stably expressing CD11c/CD18 (K562 CD11c/CD18) were generated similarly. […] K562 cells stably transfected with mutant integrin CD11bE320A/CD18 (K562 E320A) were generated according to literature protocols. All cell lines were maintained in Iscove's Modified Dulbecco's Medium (IMDM) supplemented with 10% heat-inactivated fetal bovine serum, 50 IU/mL penicillin and streptomycin and 0.5 mg/mL G418.
(§1) Cell adhesion assays with immobilized ligands were performed using the general protocol previously described and as illustrated in FIG. 1 [33]. Assays with all different K562 cell lines (K562, K562 CD11b/CD18, K562 CD11c/CD18 and K562 E320A) were performed in an identical fashion. Briefly, 384-well microplates (Corning 3700) were coated with 15 μg/mL fibrinogen (Fg) ligand in PBS^++ overnight at 4° C. At the same time, anti-CD18 (IB4) mAb was also coated. Subsequently, the coated wells were washed with 1% nonfat milk in TBS at room temperature for 1 hour. Next, the wells were washed 3 times with TBS, and the coated microplates were used in the HTS assays.
(§2) K562 CD11b/CD18, K562 CD11bE320A/CD18 and K562 CD11c/CD18 cells were washed with TBS, and cells were transferred to the Fg-coated wells of microplates in the assay buffer (Ca^2+ and Mg^2+ for physiological condition, Mn^2+ as the Positive control). A 1 μL aliquot of the compounds were transferred to each washed well with multichannel pipet from the 384-well plates.
(§3) The assay plates were incubated at 37° C. in the presence of small-molecule compounds for 30 min. To dislodge the non-adherent cell, the assay plates were gently inverted and kept in inverted position for 20 min at room temperature.
(§4) The cells were fixed with 37% formaldehyde in a small volume and the plates were kept inverted for 1 h. Upon the fixation, the solutions in the well were discarded. Next, the cells were fluorescently labeled with DAPI (0.5 μM final in TBS with 0.1% Triton X-100) and the quantitated with “Opera High Content Screening System” (Perkin Elmer).
(§5) Cell-adhesion under positive and negative control conditions was used to define the activity scale; signal corresponding to the number of non-small molecule treated cells adherent in activating buffer condition (in the presence of Mn^2+ ions as agonist, PC) was considered maximum (100% binding) and the signal corresponding to the number of non-small molecule treated cells adherent in basal buffer condition (in the presence of 1 mM each of Ca^2+ and Mg^2+, NC) was considered minimum (0% binding).

[2] = biological target: T2, integrin CD11c/CD18 (Homo sapiens, UniProt P20702); assay: HTS cell adhesion assay, K562 CD11c/CD18 cells on immobilized fibrinogen
T2 construct: expressed in transfected cells; host or cells: K562 (ATCC)
Method: K562 cells stably expressing CD11c/CD18 (K562 CD11c/CD18) were generated similarly. Mutant CD11bE320A has been described previously. K562 cells stably transfected with mutant integrin CD11bE320A/CD18 (K562 E320A) were generated according to literature protocols. All cell lines were maintained in Iscove's Modified Dulbecco's Medium (IMDM) supplemented with 10% heat-inactivated fetal bovine serum, 50 IU/mL penicillin and streptomycin and 0.5 mg/mL G418.
as §1, §2, §3, §4
as §5, with “binding). […]” for “binding).”
The compounds were diluted in DMSO by the final concentration 10 μM, 5 μM, 2.5 μM, 1.25 μM and 0.625 μM and stocked as sealed in 384-well plates at −80° C.

[3] = biological target: T3, mutant integrin CD11bE320A/CD18 (Homo sapiens, UniProt P11215, E336A); assay: HTS cell adhesion assay, K562 E320A cells on immobilized fibrinogen; conditions: five point dose-response
T3 construct: expressed in transfected cells; host or cells: K562 (ATCC)
How it was run: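 K562 cells expressing the indicated CD11b/CD18 integrin were added to wells coated with 15 μg/mL fibrinogen and incubated with compound for 30 min at 37 °C in Ca2+/Mg2+ buffer. Non-adherent cells were removed by plate inversion. Adherent cells were fixed, stained with DAPI and counted by high-content imaging, scaled from 0% (1 mM Ca2+/Mg2+) to 100% (Mn2+ activation).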

[4] = Table 3, adhesion to fibrinogen, 5-point dose-response
[5] = Table 4, adhesion to fibrinogen, dose-response
[6] = Table 3, K562 CD11c/CD18 cells, adhesion to fibrinogen, dose-response
[7] = Table 4, K562 CD11c/CD18 cells, adhesion to fibrinogen, dose-response
[8] = Table 3, adhesion to fibrinogen
[9] = Table 4, adhesion to fibrinogen

Compound | EC50 [3, 8] [µM] | EC50 [2] [nM] | also measured
O=C(O)CCN1C(=O)/C(=C/c2ccc(-c3nc4ccccc4s3)o2)SC1=S [Compound 2030972] | 6.69 |  | EC50 CD11b/CD18 [1, 4]: Very Low; EC50 CD11b/CD18 [1, 5]: N/A Very Low; EC50 CD11c/CD18 [2, 6]: Very Low; EC50 CD11c/CD18 [2, 7]: N/A Very Low; EC50 [3, 9]: 6.69 µM
O=C(O)CCN1C(=O)/C(=C\c2ccc(-c3nc4ccccc4s3)o2)SC1=S [Compound 2030970] |  |  | EC50 CD11b/CD18 [1, 4]: Very Low; EC50 CD11b/CD18 [1, 5]: N/A Very Low; EC50 CD11c/CD18 [2, 7]: N/A Very Low; EC50 E320A [3, 8]: Very Low
O=C(Nc1nnc(-c2ccccc2SCc2ccccc2)s1)Nc1ccccc1F [Compound 1964957] | 6.47 | 10600 | 
CCOc1ccc(NC(=O)c2ccc(CNc3c(NC4CCCCC4)c(=O)c3=O)cc2)cc1 [Compound 11957216] | 6.76 | 4310 | 
CCn1c(=NC(=O)c2ccc(N3C(=O)CCC3=O)cc2)sc2c(OC)ccc(OC)c21 [Compound 2150886] | 5.05 | 2130 | 
Cc1ccc(-c2nc3ncccc3o2)cc1NC(=O)c1sc2ccccc2c1Cl [Compound 1132508] | 4.44 | 5390 | 
N=C1/C(=C\c2ccc(-c3cccc(Cl)c3)o2)C(=O)N=C2SC=C(c3ccccc3)N12 [Compound 1984877] | 3.07 | 2160 | 
O=C(Nc1ccc(NC(=O)c2ccc(S(=O)(=O)c3ccccc3)cc2)cc1)c1ccccc1 [Compound 1144109] | 7.06 | 3060 | 
O=C(Nc1ccc2nc(-c3ccco3)c(-c3ccco3)nc2c1)N1CCCCCC1 [Compound 2214811] | 4.68 | 2540 | 
Cc1cc(C)cc(-n2c(N)c(C(=O)Nc3c(C)n(C)n(-c4ccccc4)c3=O)c3nc4ccccc4nc32)c1 [Compound 1967927] | 2.67 | 2490 | 
CCOC(=O)Cc1csc(NC(=O)c2sc3nc4c(C)cc(C)cc4cc3c2N)n1 [Compound 3207334] | 5.17 | 1990 | 
COCCCNC(=O)c1c(N)n(/N=C/c2cccs2)c2nc3ccccc3nc12 [Compound 6880740] | 4.99 | 2600 | 
Cc1ccc(-n2c(N)c(C(=O)Nc3c(C)n(C)n(-c4ccccc4)c3=O)c3nc4ccccc4nc32)cc1 [Compound 1949560] | 5.46 | 5530 | 
C=CCn1c(SCC(=O)c2ccc(CNC(C)=O)o2)nc2scc(C3CC3)c2c1=O [Compound 2569132] | 6.29 | 5280 | 
Cc1ccc(/C=c2\sc3nc(-c4ccccc4Br)nn3c2=O)o1 [Compound 1891182] | 6.86 | 5270 | 
N#C/C(=C\c1ccc(OCc2ccccc2)cc1)C(=O)Nc1nc2c(s1)CCN(Cc1ccccc1)C2 [Compound 2327777] | 21.9 |  | EC50 CD11c/CD18 [2, 6]: Infinite
Cc1ccccc1Cn1c(=O)n(CC2CCC(C(=O)NCCc3ccccc3)CC2)c(=O)c2ccccc21 (stereo not shown) [Compound 12006068] | 6.84 | 2460 | 
O=C(Nc1nc(-c2ccco2)c(-c2ccco2)s1)C1CC(=O)N(c2ccc3c(c2)OCCO3)C1 (stereo not shown) [Compound 2998894] | 5.86 | 3050 | 
COc1cc(NC(=O)Cn2c(=O)n(-c3cccc(C)c3)c(=O)c3c(C)c(C)sc32)cc(OC)c1 [Compound 12004750] | 6.23 | 5840 | 
CS(=O)(=O)c1ccc2c(c1)SC1=NC(=O)/C(=C/c3ccco3)C(=N)N12 [Compound 1951731] | 3.65 | 4210 | 
Cc1cc(C)cc(OCC(=O)Nc2ccc(N3CCCC3)cc2)c1 [Compound 960705] | 3.49 | 2280 | 

Compound | EC50 [3, 8] [µM] | EC50 [2] [nM] | also measured
Cc1ccc(-c2nn3c(C)nnc3s2)cc1NC(=O)c1ccc(-c2cccc(Cl)c2)o1 [Compound 666410] |  | 2450 | EC50 [3, 9]: 6.22 µM
CCOC(=O)N1CCC(NC(=O)c2ccc3c(c2)sc2nc(-c4ccc(OC)cc4)cn23)CC1 [Compound 3235854] | 5.55 | 2710 | 
CCCCCCCC(=O)Nc1ccc(C(=O)N/N=C/c2cccc([N+](=O)[O-])c2)cc1 [Compound 9774264] | 4.16 | 1030 | 
Cc1cc(OCC(=O)Nc2ccc(N3CCN(C(=O)c4ccco4)CC3)cc2)cc(C)c1Cl [Compound 1255242] | 3.41 | 2570 | 
C/C(=N/NC(=O)c1cc2ccccc2cc1O)C1C(=O)c2ccccc2C1=O [Compound 5431927] | 2.35 | 2010 | 
COc1ccc(/C=C2/SC(=O)N(CC(=O)Nc3cc(C)on3)C2=O)cc1OC [Compound 1554642] | 7.9 | 5260 | 
CCCCn1c(SCC(=O)c2ccc(OC)cc2OC)nc2cc(S(N)(=O)=O)ccc21 [Compound 2997788] | 5.27 | 4720 | 
Cc1ccsc1/C=C/C1=Cc2c(sc(NC(=O)CSc3nnc(N)[nH]3)c2C#N)C(C)(C)C1 [Compound 2083967] | 3.33 | 2700 | 
Cc1ccc(-c2ccc(/C=C(\C#N)C(=O)Nc3cc(C)nn3-c3ccccc3)o2)cc1 [Compound 1554430] | 4.68 | 1300 | 
CCc1nnc(NC(=O)c2sc3nc4c(cc3c2N)CCCCCC4)s1 [Compound 5143923] | 5.31 | 3010 | 
CC1CCN(S(=O)(=O)c2ccc(NC(=O)Cn3nnc(-c4ccccc4)n3)cc2)CC1 [Compound 652267] | 6 | 5010 | 
N=C1/C(=C\c2ccc(-c3cc(Cl)cc(Cl)c3)o2)C(=O)N=C2SC=C(c3ccccc3)N12 [Compound 1599902] | 5.71 | 2230 | 
O=c1c(-c2nc3ccccc3o2)c2oc3ccccc3n2c2ccccc12 [Compound 2321209] | 5.3 | 2630 | 
CCOC(=O)c1c(-n2c(C)cc(C=C3C(=O)NC(=S)NC3=O)c2C)sc2c1CCCC2 [Compound 1494229] | 6.53 |  | EC50 ([2]; Table 4, K562 CD11c/CD18 cells, adhesion to fibrinogen, dose-response, read-out: EC50 CD11c/CD18): 6720 nM; EC50 [3, 9]: 6.53 µM
CC(=O)Nc1ccc(-c2nnc(SCC(=O)n3c4c(c5ccccc53)CCCC4)n2C)cc1 [Compound 1310712] | 2.39 | 1290 | 
O=C(N/N=C/c1ccc(-c2ccc(S(=O)(=O)Nc3ncccn3)cc2)o1)c1cc2ccccc2cc1O [Compound 6892904] |  | 2420 | EC50 [3, 9]: 5.49 µM
Cc1ccc2nsnc2c1NC(=O)c1ccc(-c2cc(Cl)ccc2Cl)o1 [Compound 1334850] | 2.69 | 1380 | 
Cc1ccc2nc(-c3ccc(NC(=O)COC(=O)c4cncc(Br)c4)cc3)sc2c1 [Compound 2365417] | 2.83 | 4040 | 
C=CCOC(=O)c1cc(-c2ccc(/C=C3\C(=O)NC(=O)C(C#N)=C3C)o2)ccc1Cl [Compound 5769297] | 2.53 | 2540 | 
COC(=O)c1cc(OC)c(OC)cc1NC(=O)c1cc(-c2ccccc2)nc2ccccc12.Cl [Compound 2965657] | 12.8 |  | EC50 CD11c/CD18 [2, 6]: Infinite
N#Cc1sc2nc(-c3ccccc3)cc(-c3ccco3)c2c1N [Compound 629074] | 5.16 | 2360 | 
